Laboratory results: patent publication US20090269770A1, “METHODS FOR EVALUATION PROGNOSIS AND FOLLOW-UP OF DRUG TREATMENT OF PSYCHIATRIC DISEASES OR DISORDERS” (priority 2008, published 2009)
Where “and” joins values, the source holds several entries; their conditions need not be identical. Equal entries are not always repeated.

Test system: schizophrenic patients
Test: Clinical rating scales for negative (SANS) and positive (SAPS) symptoms
Assay type: in vivo, human
Settings: for SANS total / SAPS total / Affective blunting score / Alogia score / Anhedonia score / Avolition score: one line per patient I-VI
Protocol: Patients suffering from chronic schizophrenia (DSM IV criteria) with at least 2 years of illness (range 2-17 years) and persistent negative symptoms were chosen from an Israeli mental health center, as shown in Table 1. To qualify for inclusion in the study, these patients were required to be on constant antipsychotic medication for at least 6 months prior to the study and on an unchanged dose for at least 4 weeks before entry.
Fluvoxamine (100 mg/day) was added in an open study format to the antipsychotic treatment, which remained steady. Clinical state was assessed by psychiatrists using validated rating scales for negative (SANS) and positive (SAPS) symptoms (Silver et al., 2003) prior to fluvoxamine treatment and then weekly until the end of the trial period. Total SANS scores and summary scores for […] blunting, alogia, anhedonia and […] factors were the outcome measures. Extrapyramidal symptoms were assessed with the Simpson-Angus Scale (SAS) for extrapyramidal side effects (Simpson and Angus, 1970). Blood samples were taken at baseline (day 0), before addition of fluvoxamine, after 3 weeks of combined treatment, a time when the initial clinical effect is expected to be seen (Silver et al., 2003), and after 6 weeks of the combined treatment.
The biochemical data were analyzed by one way analysis of variance (ANOVA) followed by Dunnett's test. For each gene, differences between expression after 3 or 6 weeks of treatment ad baseline, were considered significant if they reached a level of significance of p<0.05. Clinical response was assessed with repeated measure ANOVA.

COCCCC/C(=N\OCCN)c1ccc(C(F)(F)F)cc1 [fluvoxamine]
SANS total (3 W of augmentation treatment): 71 and 49 and 69 and 104 and 91 and 97 | SAPS total (3 W of augmentation treatment): 9 and 7 (2×) and 12 (2×) and 11 | Affective blunting score (3 W): 23 and 26 and 19 and 9 and 18 and 27 | Alogia score (3 W): 24 and 21 and 13 | Anhedonia score (3 W): 14 (2×) and 16 and 11 (2×) and 17 | Avolition score (3 W): 16 and 18 and 11 and 8 (2×) and 19 | SANS total (6 W of augmentation treatment): 63 and 46 and 60 and 103 and 86 and 98 | SAPS total (6 W of augmentation treatment): 9 and 7 and 6 and 12 (2×) and 10 | Affective blunting score (6 W): 30 and 22 and 14 | Alogia score (6 W): 21 and 26 (2×) and 16 and 9 and 15 | Anhedonia score (6 W): 14 (2×) and 8 and 9 and 12 and 17 | Avolition score (6 W): 16 and 18 and 11 and 8 (2×) and 19 | SAPS score change (following augmentation-treatment): no significant change | mean SANS total score change (following augmentation-treatment, p<0.001): significant changes | affective blunting change (following augmentation-treatment, p<0.01): significant changes | anhedonia change (following augmentation-treatment, p=0.30): trend | avolition change (following augmentation-treatment, p=0.75): trend
